Consider 28 molecules from patent US6426229B1, “Chelating agent and detergent comprising the same” (Mitsubishi Rayon Co., Ltd., priority 1995, dated 2002).

Data set [1] can be described thus: Storage of aqueous solution or slurry for 60 days: HPLC analysis of components and appearance. Conditions: keeping temperature 50° C. Format: physicochemical. As for the experimental part:
(§1) This aqueous solution was kept at 50° C. for 60 days, and, then, the components were analyzed by HPLC and, simultaneously, the appearance of the solution was observed.
as §1
This aqueous solution was kept at 50° C. for 60 days. Then, the components were analyzed by HPLC and, simultaneously, the appearance of the solution was observed.

Assay in data set [2]: as above
Format: physicochemical.

Turning to `O=C([O-])CC(NCCNC(CC(=O)[O-])C(=O)[O-])C(=O)[O-].[Na+].[Na+].[Na+].[Na+]` (stereo not shown) [compound 43, tetrasodium ethylenediamine-N,N′-disuccinate], in data set [1], the “Appearance after kept for 60 days” value was “Light yellow transparent aqueous solution” and the “Content of the compound of the formula [I] in aqueous solution after kept for 60 days” value (“Content of the compound of the formula” for short) is on record as 35.7 wt. %.

With `CN(CC(=O)[O-])CC(=O)[O-].[Na+].[Na+]` [Example 101, disodium N-methyliminodiacetate], in data set [1], the “Appearance after kept for 60 days” value is listed as “Light yellow transparent aqueous solution” and the “Content of the compound of the formula” value came to 36.6 wt. %.

As for `O=C([O-])CC(NCCNC(CC(=O)[O-])C(=O)[O-])C(=O)[O-].[Cu+2].[Na+].[Na+]` (stereo not shown) [compound 48, copper disodium ethylenediamine-N,N′-disuccinate], in data set [1], the “Appearance after kept for 60 days” value was “Dark blue transparent aqueous solution” and the “Content of the compound of the formula” value is reported as 31.4 wt. %.

As for `O=C([O-])C[C@H](NCCN[C@@H](CC(=O)[O-])C(=O)[O-])C(=O)[O-].[Fe+3].[NH4+]` [compound 49, iron ammonium (S,S)-ethylenediamine-N,N′-disuccinate], in data set [1], the “Appearance after kept for 60 days” value was “Blackish brown aqueous solution” and the “Content of the compound of the formula” value came to 29.9 wt. %.

`O=C([O-])C[C@H](NCCN[C@@H](CC(=O)[O-])C(=O)[O-])C(=O)[O-].[Na+].[Na+].[Na+].[Na+]` [Example 113, tetrasodium (S,S)-ethylenediamine-N,N′-disuccinate]: in data set [1], the “Appearance after kept for 60 days” value is reported as “Light yellow transparent aqueous solution” and the “Content of the compound of the formula” value was 35.6 wt. %.

`CN(CC(=O)[O-])CC(=O)[O-].[Na+].[Na+]` [compound 38, disodium N-methyliminodiacetate]: in data set [1], the “Appearance after kept for 60 days” value is “Brown aqueous solution” and the “Content of the compound of the formula” value is given as 29.9 wt. %.

In the case of `O=C([O-])CC(NCCCNC(CC(=O)[O-])C(=O)[O-])C(=O)[O-].[Na+].[Na+].[Na+].[Na+]` (stereo not shown) [Example 119, tetrasodium 1,3-propanediamine-N,N′-disuccinate], in data set [2] (keeping temperature 65° C.), the “Appearance after kept for 60 days” value is “Light yellow slurry” and the “Content of the compound of the formula” value was 65.4 wt. %.

In the case of `O=C([O-])C[C@H](NCC(O)CN[C@@H](CC(=O)[O-])C(=O)[O-])C(=O)[O-].[Na+].[Na+].[Na+].[Na+]` [compound 47, tetrasodium (S,S)-2-hydroxy-1,3-propanediamine-N,N′-disuccinate, reference compound], in data set [2] (keeping temperature 75° C.), the “Appearance after kept for 60 days” value was “Colorless transparent aqueous solution” and the “Content of the compound of the formula” value worked out at 41.8 wt. %.

For `CN(CC(=O)[O-])CC(=O)[O-].[Na+].[Na+]` [Example 107, disodium N-methyliminodiacetate], in data set [2] (keeping temperature 65° C.), the “Appearance after kept for 60 days” value was “Light yellow slurry” and the “Content of the compound of the formula” value was determined as 64.5 wt. %.

`O=C([O-])CN(CC(=O)[O-])c1ccccc1C(=O)[O-].[Fe+3]` [Example 111, iron salt of anthranilic acid-N,N-diacetic acid]: in data set [2] (keeping temperature 40° C.), the “Appearance after kept for 60 days” value is reported as “Reddish brown aqueous solution” and the “Content of the compound of the formula” value is reported as 39.8 wt. %.

As for `O=C([O-])CCN[C@@H](CC(=O)[O-])C(=O)[O-].[Na+].[Na+].[Na+]` [Example 99, trisodium salt of (S)-aspartic acid-N-monopropionic acid], in data set [2] (keeping temperature 70° C.), the “Appearance after kept for 60 days” value is reported as “White slurry” and the “Content of the compound of the formula” value came to 79.4 wt. %.

Consider `O=C([O-])C[C@@H](C(=O)[O-])N(CC(=O)[O-])CC(=O)[O-].[Na+].[Na+].[Na+].[Na+]` [Example 90, tetrasodium salt of (S)-aspartic acid-N,N-diacetic acid], for which, in data set [2] (keeping temperature 75° C.), the “Appearance after kept for 60 days” value is “Colorless transparent aqueous solution” and the “Content of the compound of the formula” value is 49.5 wt. %.

`CN(CC(=O)[O-])CC(=O)[O-].[Na+].[Na+]` [compound 41, disodium N-methyliminodiacetate, reference compound]: in data set [2] (keeping temperature 75° C.), the “Appearance after kept for 60 days” value is reported as “Light yellow transparent aqueous solution” and the “Content of the compound of the formula” value worked out at 29.6 wt. %.

On to `O=C([O-])C[C@H](NCCN[C@@H](CC(=O)[O-])C(=O)[O-])C(=O)[O-].[Na+].[Na+].[Na+].[Na+]` [Example 118, tetrasodium (S,S)-ethylenediamine-N,N′-disuccinate], for which, in data set [2] (keeping temperature 65° C.), the “Appearance after kept for 60 days” value is “Light yellow slurry” and the “Content of the compound of the formula” value stood at 65.4 wt. %.

As to `O=C([O-])CC(NCCCNC(CC(=O)[O-])C(=O)[O-])C(=O)[O-].[Na+].[Na+].[Ni+2]` [compound 51, nickel disodium (S,S)-1,3-propanediamine-N,N′-disuccinate, reference compound], in data set [2] (keeping temperature 75° C.), the “Appearance after kept for 60 days” value is “Blue transparent aqueous solution” and the “Content of the compound of the formula” value was determined as 38.4 wt. %.

With `O=C([O-])CC(NCCNC(CC(=O)[O-])C(=O)[O-])C(=O)[O-].[Na+].[Na+].[Na+].[Na+]` (stereo not shown) [Example 117, tetrasodium ethylenediamine-N,N′-disuccinate], in data set [2] (keeping temperature 75° C.), the “Appearance after kept for 60 days” value is given as “Colorless transparent aqueous solution” and the “Content of the compound of the formula” value worked out at 49.8 wt. %.

Consider `O=C([O-])C[C@H](NCC(O)CN[C@@H](CC(=O)[O-])C(=O)[O-])C(=O)[O-].[Na+].[Na+].[Na+].[Na+]` [Example 121, tetrasodium (S,S)-2-hydroxy-1,3-propanediamine-N,N′-disuccinate], for which, in data set [2] (keeping temperature 70° C.), the “Appearance after kept for 60 days” value is “White slurry” and the “Content of the compound of the formula” value came to 78.7 wt. %.

Turning to `O=C([O-])C[C@@H](C(=O)[O-])N(CC(=O)[O-])CC(=O)[O-].[Na+].[Na+].[Na+].[Na+]` [compound 36, tetrasodium salt of (S)-aspartic acid-N,N-diacetic acid, reference compound], in data set [2] (keeping temperature 60° C.), the “Appearance after kept for 60 days” value is on record as “Brown slurry” and the “Content of the compound of the formula” value was 48.3 wt. %.

As for `O=C([O-])CC(NCCCNC(CC(=O)[O-])C(=O)[O-])C(=O)[O-].[Na+].[Na+].[Ni+2]` [Example 127, nickel disodium (S,S)-1,3-propanediamine-N,N′-disuccinate], in data set [2] (keeping temperature 75° C.), the “Appearance after kept for 60 days” value is recorded as “Blue transparent aqueous solution” and the “Content of the compound of the formula” value worked out at 44.0 wt. %.

On to `C[C@@H](C(=O)[O-])N(CC(=O)[O-])CC(=O)[O-].[Na+].[Na+].[Na+]` [Example 92, trisodium salt of (S)-α-alanine-N,N-diacetic acid], for which, in data set [2] (keeping temperature 75° C.), the “Appearance after kept for 60 days” value was “Colorless transparent aqueous solution” and the “Content of the compound of the formula” value stood at 49.8 wt. %.

On to `C[C@@H](C(=O)[O-])N(CC(=O)[O-])CC(=O)[O-].[Na+].[Na+].[Na+]` [Example 96, trisodium salt of (S)-α-alanine-N,N-diacetic acid], for which, in data set [2] (keeping temperature 65° C.), the “Appearance after kept for 60 days” value is “Light yellow slurry” and the “Content of the compound of the formula” value was 64.7 wt. %.

With `CN(CC(=O)[O-])CC(=O)[O-].[Na+].[Na+]` [Example 104, disodium N-methyliminodiacetate], in data set [2] (keeping temperature 75° C.), the “Appearance after kept for 60 days” value is “Colorless transparent aqueous solution”.

As for `O=C([O-])C[C@H](NCCCN[C@@H](CC(=O)[O-])C(=O)[O-])C(=O)[O-].[Na+].[Na+].[Na+].[Na+]` [Example 115, tetrasodium (S,S)-1,3-propanediamine-N,N′-disuccinate], in data set [2] (keeping temperature 75° C.), the “Appearance after kept for 60 days” value is reported as “Colorless transparent aqueous solution” and the “Content of the compound of the formula” value is 44.3 wt. %.

As to `O=C([O-])CCN[C@@H](CC(=O)[O-])C(=O)[O-].[Na+].[Na+].[Na+]` [Example 95, trisodium salt of (S)-aspartic acid-N-monopropionic acid], in data set [2] (keeping temperature 65° C.), the “Appearance after kept for 60 days” value is on record as “Light yellow slurry” and the “Content of the compound of the formula” value stood at 65.4 wt. %.

`O=C([O-])C[C@H](NCCCN[C@@H](CC(=O)[O-])C(=O)[O-])C(=O)[O-].[Na+].[Na+].[Na+].[Na+]` [compound 46, tetrasodium (S,S)-1,3-propanediamine-N,N′-disuccinate, reference compound]: in data set [2] (keeping temperature 75° C.), the “Appearance after kept for 60 days” value is “Colorless transparent aqueous solution” and the “Content of the compound of the formula” value worked out at 40.7 wt. %.

As to `O=C([O-])CN(CC(=O)[O-])c1ccccc1C(=O)[O-].[Fe+3]` [compound 42, iron salt of anthranilic acid-N,N-diacetic acid, reference compound], in data set [2] (keeping temperature 40° C.), the “Appearance after kept for 60 days” value is “Blackish brown aqueous solution” and the “Content of the compound of the formula” value is recorded as 40.6 wt. %.

Consider `O=C([O-])C[C@H](NCC(O)CN[C@@H](CC(=O)[O-])C(=O)[O-])C(=O)[O-].[Cu+2].[Na+].[Na+]` [Example 128, copper disodium (S,S)-2-hydroxy-1,3-propanediamine-N,N′-disuccinate], for which, in data set [2] (keeping temperature 75° C.), the “Appearance after kept for 60 days” value was “Dark blue transparent aqueous solution” and the “Content of the compound of the formula” value is recorded as 47.9 wt. %.

Regarding `CN(CC(=O)[O-])CC(=O)[O-].[Na+].[Na+]` [Example 109, disodium N-methyliminodiacetate], in data set [2] (keeping temperature 70° C.), the “Appearance after kept for 60 days” value is “White slurry” and the “Content of the compound of the formula” value was determined as 78.5 wt. %.
